Experiments:
[1] = target: T1, Human PDGFRβ, cytoplasmic domain (GST-PDGFRβ) (Homo sapiens, UniProt P09619); test: Human PDGFRβ biochemical inhibition assay (off-chip Mobility Shift Assay)
T1 construct: made in house
In short: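 GST-tagged cytoplasmic domain (aa 557-1106) from baculovirus was incubated 1 h at room temperature with compound, CSKtide, ATP at Km and Mg²⁺ in HEPES buffer, pH 7.5. Phosphorylated and unphosphorylated peptide were separated by off-chip mobility shift, and the product ratio P/(P+S) gave percent inhibition.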

[2] = target: T2, Human PDGFRα, cytoplasmic domain (GST-PDGFRα) (Homo sapiens, UniProt P16234); test: Human PDGFRα biochemical inhibition assay (off-chip Mobility Shift Assay)
T2 construct: made in house
T2 sequence (P16234 550-1089 T674I): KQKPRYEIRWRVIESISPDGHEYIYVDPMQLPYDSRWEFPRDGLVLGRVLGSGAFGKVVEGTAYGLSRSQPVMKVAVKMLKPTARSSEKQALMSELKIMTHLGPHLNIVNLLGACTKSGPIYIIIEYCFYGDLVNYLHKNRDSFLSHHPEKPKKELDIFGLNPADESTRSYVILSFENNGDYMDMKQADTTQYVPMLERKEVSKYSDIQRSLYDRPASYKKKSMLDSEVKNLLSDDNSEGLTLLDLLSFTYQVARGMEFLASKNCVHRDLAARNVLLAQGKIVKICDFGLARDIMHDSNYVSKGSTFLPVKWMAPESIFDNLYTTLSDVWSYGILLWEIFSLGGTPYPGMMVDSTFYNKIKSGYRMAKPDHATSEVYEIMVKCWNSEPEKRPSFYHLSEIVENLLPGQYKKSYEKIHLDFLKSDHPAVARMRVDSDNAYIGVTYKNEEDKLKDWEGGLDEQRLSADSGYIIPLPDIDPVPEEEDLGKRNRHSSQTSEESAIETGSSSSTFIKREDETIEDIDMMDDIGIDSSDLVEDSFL

T1 sequence (P09619 with tags, fused parts or gaps): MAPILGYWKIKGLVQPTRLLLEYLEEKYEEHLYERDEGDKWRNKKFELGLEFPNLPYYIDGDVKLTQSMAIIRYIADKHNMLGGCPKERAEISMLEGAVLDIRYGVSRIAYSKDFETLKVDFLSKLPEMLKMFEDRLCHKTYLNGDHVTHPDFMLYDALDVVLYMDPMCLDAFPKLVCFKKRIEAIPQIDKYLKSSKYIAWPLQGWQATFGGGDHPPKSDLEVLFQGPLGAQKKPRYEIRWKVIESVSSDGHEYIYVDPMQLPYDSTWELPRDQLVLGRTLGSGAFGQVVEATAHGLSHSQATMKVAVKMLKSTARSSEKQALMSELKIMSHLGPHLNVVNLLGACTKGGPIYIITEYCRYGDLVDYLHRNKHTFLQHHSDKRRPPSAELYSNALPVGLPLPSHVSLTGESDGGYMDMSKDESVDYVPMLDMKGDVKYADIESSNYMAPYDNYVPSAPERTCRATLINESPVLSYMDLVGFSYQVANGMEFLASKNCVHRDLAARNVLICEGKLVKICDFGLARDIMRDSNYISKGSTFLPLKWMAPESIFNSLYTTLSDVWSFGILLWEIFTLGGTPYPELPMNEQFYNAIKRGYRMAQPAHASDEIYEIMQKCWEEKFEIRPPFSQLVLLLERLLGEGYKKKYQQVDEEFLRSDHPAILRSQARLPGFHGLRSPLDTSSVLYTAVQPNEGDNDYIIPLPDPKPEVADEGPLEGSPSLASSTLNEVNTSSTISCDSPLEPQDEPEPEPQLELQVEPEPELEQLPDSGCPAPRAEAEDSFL

Row | IC50 [1] [µM] | IC50 [2] [µM] | SMILES
1 | < 0.3 | < 0.3 | CCn1cc2ncc(N[C@@H](C)c3cccc(NC(=O)c4cnc(OC(C)C)c(C)c4)c3)nc2n1 [Compound 327, (S)-N-(3-(1-((2-ethyl-2H-pyrazolo[3,4-b]pyrazin-6-yl)amino)ethyl)phenyl)-6-isopropoxy-5-methylnicotinamide]
2 | < 0.3 | < 0.3 | COc1ncc(C(=O)Nc2cccc([C@H](C)Nc3cnc4cnn(C)c4n3)c2)cc1C(F)(F)F [Compound 247, (S)-6-methoxy-N-(3-(1-((1-methyl-1-pyrazolo[3,4-b]pyrazin-6-yl)amino)ethyl)phenyl)-5-(trifluoromethyl) nicotinamide]
3 | < 0.3 | < 0.3 | COc1ccc(-n2ncc3ncc(N[C@@H](C)c4cccc(NC(=O)c5cncc(C)c5)c4)nc32)cc1OC [Compound 185, (S)-N-(3-(1-((1-(3,4-dimethoxyphenyl)-1H-pyrazolo[3,4-b]pyrazin-6-yl)amino)ethyl)phenyl)-5-methylnicotinamide]
4 | < 0.3 | < 0.3 | CCn1cc2ncc(N[C@@H](C)c3cccc(NC(=O)Cc4ccc(F)c(F)c4)c3)nc2n1 [Compound 648, (S)-2-(3,4-difluorophenyl)-N-(3-(1-((2-ethyl-2H-pyrazolo[3,4-b]pyrazin-6-yl)amino)ethyl)phenyl)acetamide]
5 | ≥ 1 | 0.3 to 1 | CCn1cc2ncc(N[C@@H](C)c3cccc(NC(=O)c4ccc(CN5CC6(COC6)C5)c(F)c4)c3)nc2n1 [Compound 468, (S)-4-((2-oxa-6-azaspiro[3.3]heptan-6-yl)methyl)-N-(3-(1-((2-ethyl-2H-pyrazolo[3,4-b]pyrazin-6-yl)amino)ethyl)phenyl)-3-fluorobenzamide]
6 | < 0.3 | < 0.3 | COc1ccc(C(=O)Nc2cccc([C@H](C)Nc3cnc4cnn(C)c4n3)c2)cc1OC [Compound 203, (S)-3,4-dimethoxy-N-(3-(1-((1-methyl-1H-pyrazolo[3,4-b]pyrazin-6-yl)amino)ethyl)phenyl)benzamide]
7 | < 0.3 | < 0.3 | C[C@H](Nc1cnc2cnn(C)c2n1)c1cccc(NC(=O)c2cnc3ccsc3c2)c1 [Compound 49, (S)-N-(3-(1-((1-methyl-1H-pyrazolo[3,4-b]pyrazin-6-yl)amino)ethyl)phenyl) thieno[3,2-b]pyridinc-6-carboxamide]
8 | < 0.3 | < 0.3 | CCn1cc2ncc(N[C@@H](C)c3cccc(NC(=O)c4cc(F)c(CN5CCN(C)CC5)c(Cl)c4)c3)nc2n1 [Compound 489, (S)-3-chloro-N-(3-(1-((2-ethyl-2H-pyrazolo[3,4-b]pyrazin-6-yl)amino)ethyl)phenyl)-5-fluoro-4-((4-methylpiperazin-1-yl)methyl)benzamide]
9 | 0.3 to 1 | < 0.3 | CCn1cc2ncc(N[C@@H](C)c3cccc(NC(=O)c4ccc(CN5CC(O)C5)c(C)c4)c3)nc2n1 [Compound 496, (S)-N-(3-(1-((2-ethyl-2H-pyrazolo[3,4-b]pyrazin-6-yl)amino)ethyl)phenyl)-4-((3-hydroxyazetidin-1-yl)methyl)-3-methylbenzamide]
10 | ≥ 1 | 0.3 to 1 | CCn1cc2ncc(N[C@@H](C)c3cc(NC(=O)Cc4ccc(C(C)(C)F)cn4)ccc3C)nc2n1 [Compound 690, (S)-N-(3-(1-((2-ethyl-2H-pyrazolo[3,4-b]pyrazin-6-yl)amino)ethyl)-4-methylphenyl)-2-(5-(2-fluoropropan-2-yl)pyridin-2-yl)acetamide]
11 | < 0.3 | < 0.3 | C[C@H](Nc1cnc2ccoc2n1)c1cc(NC(=O)c2ccc(C(F)(F)F)nc2)ccc1F [Compound 617, (S)-N-(4-fluoro-3-(1-(furo[2,3-b]pyrazin-3-ylamino)ethyl)phenyl)-6-(trifluoromethyl) nicotinamide]
12 | < 0.3 | < 0.3 | CCn1cc2ncc(N[C@@H](C)c3cc(NC(=O)c4ccc(CN5CCN(C)CC5)c(C)c4)ccc3F)nc2n1 [Compound 457, (S)-N-(3-(1-((2-ethyl-2H-pvrazolo[3,4-b]pyrazin-6-yl)amino)ethyl)-4-fluorophenyl)-3 methyl-4-((4-methylpiperazin-1-yl)methyl)benzamide]
13 | < 0.3 | < 0.3 | Cc1n[nH]c2ncc(N[C@@H](C)c3cccc(NC(=O)c4cnc(C5CC5)s4)c3)nc12 [Compound 541, (S)-2-cyclopropyl-N-(3-(1-((3-methyl-1H-pyrazolo[3,4-b]pyrazin-5-yl)amino)ethyl)phenyl)thiazole-5-carboxamide]
14 | ≥ 1 | < 0.3 | CCn1cc2ncc(N[C@@H](C)c3cccc(NC(=O)Nc4ccc(N(C)C)nc4)c3)nc2n1 [Compound 739, (S)-1-(6-(dimethylamino)pyridin-3-yl)-3-(3-(1-((2-ethyl-2H-pyrazolo[3,4-b]pyrazin-6-yl)amino)ethyl)phenyl)urea]
15 | 0.3 to 1 | ≥ 1 | Cc1c[nH]c2ncc(N[C@@H](C)c3cccc(NC(=O)c4cnc(C(F)(F)F)s4)c3)nc12 [Compound 572, (S)-N-(3-(1-((7-methyl-5H-pyrrolo[2,3-b]pyrazin-2-yl)amino)ethyl)phenyl)-2-(trifluoromethyl)thiazole-5-carboxamide]
16 | < 0.3 | < 0.3 | Cc1cncc(NC(=O)Nc2cccc([C@H](C)Nc3cnc4cnn(C)c4n3)c2)c1 [Compound 731, (S)-1-(3-(1-((1-methyl-1H-pyrazolo[3,4-b]pyrazin-6-yl)amino)ethyl)phenyl)-3-(5-methylpyridin-3-yl)urea]
17 | < 0.3 | < 0.3 | CCn1cc2ncc(N[C@@H](C)c3cccc(NC(=O)c4cnc(C(N)=O)s4)c3)nc2n1 [Compound 365, (S)-N5-(3-(1-((2-ethyl-2H-pyrazolo[3,4-b]pyrazin-6-yl)amino)ethyl)phenyl)thiazole-2,5-dicarboxamide]
18 | < 0.3 | < 0.3 | CCc1ncc(C(=O)Nc2cccc([C@H](C)Nc3cnc4cnn(C)c4n3)c2)cc1C [Compound 233, (S)-6-ethyl-5-methyl-N-(3-(1-((1-methyl-1H-pyrazolo[3,4-b]pyrazin-6-yl)amino)ethyl)phenyl)nicotinamide]
19 | < 0.3 | < 0.3 | C[C@H](Nc1cnc2cnn(C)c2n1)c1cccc(NC(=O)c2cncc(C3COC3)c2)c1 [Compound 114, (S)-N-(3-(1-((1-methyl-1H-pyrazolo[3,4-b]pyrazin-6-yl)amino)ethyl)phenyl)-5-(oxetan-3-yl)nicotinamide]
20 | < 0.3 | < 0.3 | CCn1cc2ncc(N[C@@H](C)c3cc(NC(=O)Cc4cccc(C)c4)ccc3F)nc2n1 [Compound 634, (S)-N-(3-(1-((2-ethyl-2H-pyrazolo[3,4-b]pyrazin-6-yl)amino)ethyl)-4-fluorophenyl)-2-(m-tolyl)acetamide]
21 | ≥ 1 | 0.3 to 1 | CCn1cc2ncc(N[C@@H](C)c3cccc(NC(=O)Cc4ccc(OC)cn4)c3)nc2n1 [Compound 697, (S)-N-(3-(1-((2-ethyl-2H-pyrazolo[3,4-b]pyrazin-6-yl)amino)ethyl)phenyl)-2-(5-methoxypyridin-2-yl)acetamide]
22 | < 0.3 | < 0.3 | Cc1cncc(C(=O)Nc2cccc([C@H](C)Nc3cnc4cn(-c5cccnc5)nc4n3)c2)c1 [Compound 463, (S)-5-methyl-N-(3-(1-((2-(pyridin-3-yl)-2H-pyrazolo[3,4-b]pyrazin-6-yl)amino)ethyl)phenyl)nicotinamide]
23 | ≥ 1 | < 0.3 | CCn1ncc2ncc(N[C@@H](C)c3cccc(NC(=O)c4cncc(C)c4)c3)cc21 [Compound 7]
24 | < 0.3 | < 0.3 | Cc1cc(C(=O)Nc2cccc([C@H](C)Nc3cnc4cnn(C)c4n3)c2)ccc1C(=O)OCCN1CCOCC1 [Compound 264, 2-morpholinoethyl (S)-2-methyl-4-((3-(1-((1-methyl-1H-pyrazolo[3,4-b]pyrazin-6-yl)amino)ethyl)phenyl)carbamoyl) benzoate]
25 | < 0.3 | < 0.3 | CCn1cc2ncc(N[C@@H](C)c3cc(NC(=O)c4cnc(C(F)(F)F)c(C)c4)ccc3F)nc2n1 [Compound 335, (S)-N-(3-(1-((2-ethyl-2H-pyrazolo[3,4-b]pyrazin-6-yl)amino)ethyl)-4-fluorophenyl)-5-methyl-6-(trifluoromethyl) nicotinamide]
26 | < 0.3 | < 0.3 | CCn1cc2ncc(N[C@@H](C)c3cc(NC(=O)c4ccc(CN5CCCC5)c(Cl)c4)ccc3F)nc2n1 [Compound 426, (S)-3-chloro-N-(3-(1-((2-ethyl-2H-pyrazolo[3,4-b]pyrazin-6-yl)amino)ethyl)-4-fluorophenyl)-4-(pyrrolidin-1-ylmethyl) benzamide]
27 | < 0.3 | < 0.3 | CCn1cc2ncc(N[C@@H](C)c3cc(NC(=O)c4cnn(C5CC5)c4)ccc3F)nc2n1 [Compound 312, (S)-1-cyclopropyl-N-(3-(1-((2-ethyl-2H-pyrazolo[3,4-b]pyrazin-6-yl)amino)ethyl)-4-fluorophenyl)-1H-pyrazole-4-carboxamide]
28 | < 0.3 | < 0.3 | CCn1cc2ncc(N[C@@H](C)c3cccc(NC(=O)c4ccc(CN5CCCC5)c(C)c4)c3)nc2n1 [Compound 404, (S)-N-(3-(1-((2-ethyl-2H-pyrazolo[3,4-b]pyrazin-6-yl)amino)ethyl)phenyl)-3-methyl-4-(pyrrolidin-1-ylmethyl) benzamide]
29 | < 0.3 | < 0.3 | C[C@H](Nc1cnc2[nH]ccc2n1)c1cc(NC(=O)c2ccc(OC(F)F)nc2)ccc1F [Compound 596, (S)-N-(3-(1-((5H-pyrrolo[2,3-b]pyrazin-2-yl)amino)ethyl)-4-fluorophenyl)-6-(difluoromethoxy)nicotinamide]
30 | 0.3 to 1 | < 0.3 | CCn1cc2ncc(N[C@@H](C)c3cccc(NC(=O)c4ccc(NC(C)C)nc4)c3)nc2n1 [Compound 395, (S)-N-(3-(1-((2-ethyl-2H-pyrazolo[3,4-b]pyrazin-6-yl)amino)ethyl)phenyl)-6-(isopropylamino)nicotinamide]

Reference: US20230102554A1 (GB002, INC., priority 2019, published 2023)
